The record followed here is patent publication US20230115274A1, “COMPOUNDS AND COMPOSITIONS FOR TREATING CONDITIONS ASSOCIATED WITH STING ACTIVITY” (IFM Due, Inc., priority 2019, published 2023).

This experiment concerns the target T1, hSTING (Homo sapiens, UniProt Q86WV6, G230A/H232R/R293Q/R71H).
T1 construct: host or cells: THP1-Dual KO-IFNAR2 cells
Description: STING reporter assay (luciferase) in THP1-Dual KO-IFNAR2 cells stimulated with 2′3′cGAMP. The note with it: 2′3′cGAMP 15 μM, 24 h. The format is cell-based. In short, it runs like this:
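THP1-Dual KO-IFNAR2 cells (2×10E6 cells/mL) were treated with compound at 0.0017-100 μM final plus 15 μM final 2′3′cGAMP delivered with Lipofectamine 2000. After 24 h at 37° C., secreted luciferase in supernatant was read by QUANTI-Luc luminescence and EC50 values were fitted.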
In general terms: A reporter such as luciferase makes a cellular process visible.

T1 sequence (Q86WV6 whole entry R71H/G230A/H232R/R293Q): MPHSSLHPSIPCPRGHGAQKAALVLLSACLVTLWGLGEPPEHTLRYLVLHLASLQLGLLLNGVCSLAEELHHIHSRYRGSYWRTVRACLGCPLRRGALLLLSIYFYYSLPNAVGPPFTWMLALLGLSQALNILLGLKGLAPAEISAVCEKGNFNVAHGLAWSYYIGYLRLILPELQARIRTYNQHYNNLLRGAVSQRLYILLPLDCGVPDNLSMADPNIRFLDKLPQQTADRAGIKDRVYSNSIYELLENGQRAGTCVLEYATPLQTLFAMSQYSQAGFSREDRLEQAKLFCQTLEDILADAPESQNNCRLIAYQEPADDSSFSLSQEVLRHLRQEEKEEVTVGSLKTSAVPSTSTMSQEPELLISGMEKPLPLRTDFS

In the case of `O=C(Nc1cnc(N2CCCCC2)c(Cl)c1)Nc1c[nH]c2ncc(F)cc12` [Compound 196, 1-(5-chloro-6-(piperidin-1-yl)pyridin-3-yl)-3-(5-fluoro-1H-pyrrolo[2,3-b]pyridin-3-yl)urea], the EC50 (usually the concentration that produces a half-maximal response) (class symbols) lay within 200 to 1000 nM.

Where the note is “class symbols”, `COCCOc1ccc2[nH]cc(NC(=O)Nc3cnc(C4CCC(F)(F)CC4)c(F)c3)c2n1` [Compound 210, 1-(6-(4,4-difluorocyclohexyl)-5-fluoropyridin-3-yl)-3-(5-(2-methoxyethoxy)-1H-pyrrolo[3,2-b]pyridin-3-yl)urea] gave an EC50 of 200 to 1000 nM.

As to `N#Cc1cc(NC(=O)Nc2c[nH]c3c(F)cncc23)ccc1C1CCC(F)(F)CC1` [Compound 149, 1-(3-cyano-4-(4,4-difluorocyclohexyl)phenyl)-3-(7-fluoro-1H-pyrrolo[3,2-c]pyridin-3-yl)urea], the EC50 (class symbols) lay in the range of 200 to 1000 nM.

With `O=C(Nc1ccc(N2CCC(F)(F)CC2)nc1)Nc1c[nH]c2cccnc12` [Compound 220, 1-(6-(4,4-difluoropiperidin-1-yl)pyridin-3-yl)-3-(1H-pyrrolo[3,2-b]pyridin-3-yl)urea], the EC50 (numeric bounds) was more than 30000 nM.

Compound `COc1cnc2[nH]cc(NC(=O)Nc3cnc(N4CCC(F)(F)CC4)c(C)c3)c2c1` [Compound 168, 1-(6-(4,4-difluoropiperidin-1-yl)-5-methylpyridin-3-yl)-3-(5-methoxy-1H-pyrrolo[2,3-b]pyridin-3-yl)urea] registered a concentration giving a half-maximal response (EC50) (class symbols) of 200 to 1000 nM.

`O=C(Nc1cnc(N2CCC3(CC2)CCC(F)(F)CO3)c(Cl)c1)Nc1c[nH]c2cccnc12` [Compound 207, 1-(5-chloro-6-(3,3-difluoro-1-oxa-9-azaspiro[5.5]undecan-9-yl)pyridin-3-yl)-3-(1H-pyrrolo[3,2-b]pyridin-3-yl)urea] returned an EC50 (class symbols) of 5000 to 100000 nM.

Regarding `O=C(Nc1cnc(N2CCC(F)(F)CC2)c(Cl)c1)Nc1c[nH]c2cccnc12` [Compound 188, 1-(5-chloro-6-(4,4-difluoropiperidin-1-yl)pyridin-3-yl)-3-(1H-pyrrolo[3,2-b]pyridin-3-yl)urea], the EC50 (class symbols) fell in the range of 200 to 1000 nM.

On to `CC(C)n1cc(-c2cnc3[nH]cc(NC(=O)Nc4ccc(C5CCC(F)(F)CC5)nc4)c3c2)cn1` [Compound 107, 1-(6-(4,4-difluorocyclohexyl)pyridin-3-yl)-3-(5-(1-isopropyl-1H-pyrazol-4-yl)-1H-pyrrolo[2,3-b]pyridin-3-yl)urea], for which, where the note is “class symbols”, the EC50 was 200 to 1000 nM.

Under “class symbols”, `COc1ccc2[nH]cc(NC(=O)Nc3cnc(N4CC(F)(F)C4)c(Cl)c3)c2n1` [Compound 231, 1-(5-chloro-6-(3,3-difluoroazetidin-1-yl)pyridin-3-yl)-3-(5-methoxy-1H-pyrrolo[3,2-b]pyridin-3-yl)urea] showed a 50% effective concentration (EC50) of 200 to 1000 nM.

Take `O=C(Nc1ccc(C2CCC(F)(F)CC2)nc1)Nc1c[nH]c2nc(Br)c(F)cc12` [Compound 180, 1-(6-bromo-5-fluoro-1H-pyrrolo[2,3-b]pyridin-3-yl)-3-(6-(4,4-difluorocyclohexyl)pyridin-3-yl)urea]: the EC50 (class symbols) is 5000 to 100000 nM.

In the case of `COc1ccc2[nH]cc(NC(=O)Nc3cnc(C4CCC(F)(F)CC4)c(C#N)c3)c2n1` [Compound 140, 1-(5-cyano-6-(4,4-difluorocyclohexyl)pyridin-3-yl)-3-(5-methoxy-1H-pyrrolo[3,2-b]pyridin-3-yl)urea], the EC50 (class symbols) was in the range of 200 to 1000 nM.

For the setting “numeric bounds”, `Cc1cc(N2CCC(F)(F)CC2)ncc1NC(=O)Nc1c[nH]c2nccc(C)c12` [Compound 179, 1-(6-(4,4-difluoropiperidin-1-yl)-4-methylpyridin-3-yl)-3-(4-methyl-1H-pyrrolo[2,3-b]pyridin-3-yl)urea] returned an EC50 of more than 30000 nM.

In turn, `O=C(Nc1ccc(C2CCC(F)(F)CC2)nc1)Nc1cn(Cc2ccccc2)c2ncc(F)cc12` [Compound 104, 1-(1-benzyl-5-fluoro-1H-pyrrolo[2,3-b]pyridin-3-yl)-3-(6-(4,4-difluorocyclohexyl)pyridin-3-yl)urea] came in with an EC50 (class symbols) of 5000 to 100000 nM.

Consider `O=C(Nc1cnc(N2CCC(F)(F)CC2)c(Cl)c1)Nc1c[nH]c2cc(Br)cnc12` [Compound 240, 1-(6-bromo-1H-pyrrolo[3,2-b]pyridin-3-yl)-3-(5-chloro-6-(4,4-difluoropiperidin-1-yl)pyridin-3-yl)urea], for which, for the setting “class symbols”, the concentration giving a half-maximal response (EC50) lay within 5000 to 100000 nM.

Take `COc1ccc2[nH]cc(NC(=O)Nc3cnc(C4CCC(F)(F)CC4)c(Cl)c3)c2n1` [Compound 233, 1-(5-chloro-6-(4,4-difluorocyclohexyl)pyridin-3-yl)-3-(5-methoxy-1H-pyrrolo[3,2-b]pyridin-3-yl)urea]: the EC50 (class symbols) lay within 40 to 200 nM.

Consider `O=C(Nc1cnc(N2CCC(F)(F)CC2)c(Cl)c1)Nc1c[nH]c2ccc(Cl)nc12` [Compound 144, 1-(5-chloro-1H-pyrrolo[3,2-b]pyridin-3-yl)-3-(5-chloro-6-(4,4-difluoropiperidin-1-yl)pyridin-3-yl)urea], for which the EC50 (class symbols) lay within 200 to 1000 nM.

Compound `O=C(Nc1cnc(N2CCC3(CC2)CC(F)(F)C3)c(Cl)c1)Nc1c[nH]c2cccnc12` [Compound 226, 1-(5-chloro-6-(2,2-difluoro-7-azaspiro[3.5]nonan-7-yl)pyridin-3-yl)-3-(1H-pyrrolo[3,2-b]pyridin-3-yl)urea] displayed an EC50 (class symbols) of 200 to 1000 nM.

Turning to `N#Cc1cc(NC(=O)Nc2c[nH]c3ncc(Cl)cc23)cnc1C1CCC(F)(F)CC1` [Compound 151, 1-(5-chloro-1H-pyrrolo[2,3-b]pyridin-3-yl)-3-(5-cyano-6-(4,4-difluorocyclohexyl)pyridin-3-yl)urea], the EC50 (class symbols) lay in the range of 200 to 1000 nM.

As for `O=C(Nc1ccc(C2CC(F)(F)C2)nc1)Nc1c[nH]c2ncc(F)cc12` [Compound 161, 1-(6-(3,3-difluorocyclobutyl)pyridin-3-yl)-3-(5-fluoro-1H-pyrrolo[2,3-b]pyridin-3-yl)urea], the EC50 (class symbols) fell in the range of 1000 to 5000 nM.

For the setting “numeric bounds”, `Cn1cc(-n2cc(NC(=O)Nc3ccc(C4CCC(F)(F)CC4)nc3)c3cc(F)cnc32)cn1` [Compound 125, 1-(6-(4,4-difluorocyclohexyl)pyridin-3-yl)-3-(5-fluoro-1-(1-methyl-1H-pyrazol-4-yl)-1H-pyrrolo[2,3-b]pyridin-3-yl)urea] returned an EC50 of more than 30000 nM.

The compound `O=C(Nc1cnc(N2CC3(CN(CC(F)(F)F)C3)C2)c(Cl)c1)Nc1c[nH]c2cccnc12` [Compound 224, 1-(5-chloro-6-(6-(2,2,2-trifluoroethyl)-2,6-diazaspiro[3.3]heptan-2-yl)pyridin-3-yl)-3-(1H-pyrrolo[3,2-b]pyridin-3-yl)urea] returned an EC50 (class symbols) of 5000 to 100000 nM.

As for `O=C(Nc1cc(Cl)nc(C2CCC(F)(F)CC2)c1)Nc1c[nH]c2cccnc12` [Compound 217, 1-(2-chloro-6-(4,4-difluorocyclohexyl)pyridin-4-yl)-3-(1H-pyrrolo[3,2-b]pyridin-3-yl)urea], the EC50 (class symbols) fell in the range of 1000 to 5000 nM.

In the case of `O=C(Nc1cnc(C2CC(F)(F)C2)c(Cl)c1)Nc1c[nH]c2cccnc12` [Compound 143, 1-(5-chloro-6-(3,3-difluorocyclobutyl)pyridin-3-yl)-3-(1H-pyrrolo[3,2-b]pyridin-3-yl)urea], under “class symbols”, the concentration for a half-maximal effect (EC50) is 200 to 1000 nM.

Turning to `O=C(Nc1cnc(N2CCC(F)(F)CC2)c(F)c1)Nc1c[nH]c2cccnc12` [Compound 230, 1-(6-(4,4-difluoropiperidin-1-yl)-5-fluoropyridin-3-yl)-3-(1H-pyrrolo[3,2-b]pyridin-3-yl)urea], under “class symbols”, the EC50 lay in the range of 200 to 1000 nM.

For the setting “class symbols”, `O=C(Nc1cnc(OC2CCC2)c(F)c1)Nc1c[nH]c2ncc(F)cc12` [Compound 111, 1-(6-cyclobutoxy-5-fluoropyridin-3-yl)-3-(5-fluoro-1H-pyrrolo[2,3-b]pyridin-3-yl)urea] registered a concentration for a half-maximal effect (EC50) of 200 to 1000 nM.
